# Test results as given in patent US8207176B2 (Glaxo Group Limited, priority 2005, dated 2012).
# Experiments:
# [1] = target: T1, Recombinant human p38α (MKK6-activated) (Homo sapiens, UniProt Q16539); assay: Time-resolved fluorescence resonance energy transfer (TR-FRET) kinase assay (standard or low volume); assay type: biochemical; parameters: key: Compounds are considered active in this assay if they demonstrate a pIC50 of greater than 4.6 up to about a pIC50 of greater than 10.0; details: MKK6-activated p38α 100 pM, GST-ATF2 400 nM, 120 minutes at room temperature; either assay format
# T1 construct: His; made in house
# Procedure: It is noted that there are two assay formats shown above for the Fluorescence anisotropy kinase binding assay. The only difference between these two assays is the volume used and the plate type. […] The results described herein may have been performed in either assay format and are not differentiated as to which. […] TR-FRET Assay Time-Resolved Fluorescence Resonance Energy Transfer Kinase Standard Assay Recombinant human p38α was expressed as a His-tagged protein. To activate this protein, 3 μM unactivated p38α was incubated in 200 mM Hepes pH 7.4, 625 mM NaCl, 1 mM DTT with 27 nM active MKK6 (Upstate), 1 mM ATP and 10 mM MgCl2 The activity of the MKK6-activated p38α was assessed using a time-resolved fluorescence resonance energy transfer (TR-FRET) assay. Biotinylated-GST-ATF2 (residues 19-96, 400 nM final), ATP ([…]) and MgCl2 (5 mM final) in assay buffer (40 mM HEPES pH 7.4, 1 mM DTT) were added to wells containing 1 ul of various concentrations of compound or DMSO vehicle (3% final) in NUNC 384 well black plate. The reaction was initiated by the addition of MKK6-activated p38 (100 pM final) to give a total volume of 30 ul. The reaction was incubated for 120 minutes at room temperature, then terminated by the addition of 15 μl of 100 mM EDTA pH 7.4. Detection reagent (15 μl) in buffer (100 mM HEPES pH 7.4, 150 mM NaCl, 0.1% w/v BSA, 1 mM DTT) containing antiphosphothreonine-ATF2-71 polyclonal antibody (Cell Signalling Technology, Beverly Mass., USA) labelled with W-1024 europium chelate (Wallac OY, Turku, Finland), and APC-labelled streptavidin (Prozyme, San Leandro, Calif., USA) was added and the reaction was further incubated for 60 minutes at room temperature. The degree of phosphorylation of GST-ATF2 was measured using a Packard Discovery plate reader (Perkin-Elmer Life Sciences, Pangbourne, UK) as a ratio of specific 665 nm energy transfer signal to reference europium 620 nm signal. Time-Resolved Fluorescence Resonance Energy Transfer Kinase Low Volume Assay Recombinant human p38α was expressed as a His-tagged protein. To activate this protein, 3 μM unactivated p38α was incubated in 200 mM Hepes pH7.4, 625 mM NaCl, 1 mM DTT with 27 nM active MKK6 (Upstate), 1 mM ATP and 10 mM MgCl2 The activity of the MKK6-activated p38α was assessed using a time-resolved fluorescence resonance energy transfer (TR-FRET) assay. Biotinylated-GST-ATF2 (residues 19-96, 400 nM final), ATP (125 μM final) and MgCl2 ([…]) in assay buffer (40 mM HEPES pH 7.4, 1 mM DTT) were added to wells containing 0.1 μl of various concentrations of compound or DMSO vehicle (1.7% final) in Greiner low volume 384 well black plate. The reaction was initiated by the addition of MKK6-activated p38α (100 pM final) to give a total volume of 6 μl. The reaction was incubated for 120 minutes at room temperature, then terminated by the addition of 3 μl of detection reagent in buffer (100 mM HEPES pH 7.4, 150 mM NaCl, 0.1% w/v BSA, 1 mM DTT, 100 mM EDTA) containing antiphosphothreonine-ATF2-71 polyclonal antibody (Cell Signalling Technology, Beverly Mass., USA) labelled with W-1024 europium chelate (Wallac OY, Turku, Finland), and APC-labelled streptavidin (Prozyme, San Leandro, Calif., USA). The reaction was further incubated for 60 minutes at room temperature. The degree of phosphorylation of GST-ATF2 was measured using a BMG Rubystar plate reader (BMG, UK) as a ratio of specific 665 nm energy transfer signal to reference europium 620 nm signal. It is noted that there are two assay formats shown above for the Time-resolved fluorescence resonance energy transfer kinase assay. The only difference between these two assays is the volume used and the plate type. […] The results described herein may have been performed in either assay format and are not differentiated as to which. […] For purposes herein the HTRF assay and the Fluorescence anisotropy kinase binding assay: […]
# [2] = tested on: influx of neutrophils to the lung in LPS-challenged rats; assay: Rat LPS neutrophilia model; assay type: in vivo; details: intratracheal, LPS aerosol 100 ug/ml 15 min, lavage 4 hours later, in at least one of the range of conditions tested, significant p<0.05, nonsignificant p>0.05
# Procedure, shortened: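 Compound was given intratracheally (200 ul, suspension or dry powder) 15 min–24 hours before a 15 min aerosol of LPS (100 ug/ml). Bronchoalveolar lavage was taken 4 hours after challenge for differential cell counts. Values are % inhibition of neutrophils versus no-compound controls at a given concentration and pretreat time.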
# T1 sequence (Q16539 whole entry): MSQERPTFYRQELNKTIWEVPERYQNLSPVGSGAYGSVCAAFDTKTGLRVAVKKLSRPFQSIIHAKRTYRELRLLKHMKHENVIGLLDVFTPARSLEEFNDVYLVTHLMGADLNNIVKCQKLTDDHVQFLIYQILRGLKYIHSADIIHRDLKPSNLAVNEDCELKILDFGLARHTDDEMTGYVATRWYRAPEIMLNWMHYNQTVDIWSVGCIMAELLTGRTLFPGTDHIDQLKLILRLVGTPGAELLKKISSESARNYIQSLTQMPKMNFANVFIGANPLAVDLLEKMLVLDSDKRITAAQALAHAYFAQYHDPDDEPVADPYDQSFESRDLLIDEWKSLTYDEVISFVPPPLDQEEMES
SMILES,"pIC50, reported as active [1]",inhibition of neutrophilia (neutrophil levels in lung lavage relative to no compound controls) [2],melting point
"CNCCNc1nc(-c2cc(C(=O)NC(C)C)ccc2C)c2ccc(=O)n(-c3c(F)cccc3F)c2n1 [Example 57, 3-(8-(2,6-difluorophenyl)-2-{[2-(methylamino)ethyl]amino}-7-oxo-7,8-dihydropyrido[2,3-d]pyrimidin-4-yl)-4-methyl-N-(1-methylethyl)benzamide]",active,statistically significant inhibition,
"Cc1ccc(NC(=O)c2ccsc2)cc1-c1nc(NC2CC(C)(C)NC(C)(C)C2)nc2c1ccc(=O)n2-c1c(F)cccc1F [31(e), N-(3-{8-(2,6-difluorophenyl)-7-oxo-2-[(2,2,6,6-tetramethyl-4-piperidinyl)amino]-7,8-dihydropyrido[2,3-d]pyrimidin-4-yl}-4-methylphenyl)-3-thiophenecarboxamide]",active,statistically significant inhibition,
"Cc1ccc(C(=O)NC(C)C)cc1-c1nc(N2CCC(N3CCC(C)CC3)CC2)nc2c1ccc(=O)n2-c1c(F)cccc1F [163(c), 3-[8-(2,6-difluorophenyl)-2-(4-methyl-1,4′-bipiperidin-1′-yl)-7-oxo-7,8-dihydropyrido[2,3-d]pyrimidin-4-yl]-4-methyl-N-(1-methylethyl)benzamide]",active,statistically nonsignificant inhibition,
"Cc1ccc(C(=O)Nc2ccc(F)cc2)cc1-c1nc(NCCN(C)C)nc2c1ccc(=O)n2-c1c(F)cccc1F [Example 112, 3-(8-(2,6-difluorophenyl)-2-{[2-(dimethylamino)ethyl]amino}-7-oxo-7,8-dihydropyrido[2,3-d]pyrimidin-4-yl)-N-(4-fluorophenyl)-4-methylbenzamide]",active,statistically nonsignificant inhibition,
"CCCNC(=O)c1ccc(C)c(-c2nc(NCCNC)nc3c2ccc(=O)n3-c2c(F)cccc2F)c1 [56(d), 3-(8-(2,6-difluorophenyl)-2-{[2-(methylamino)ethyl]amino}-7-oxo-7,8-dihydropyrido[2,3-d]pyrimidin-4-yl)-4-methyl-N-propylbenzamide]",active,statistically significant inhibition,
"Cc1ccc(C(=O)NCc2ccccc2)cc1-c1nc(NCc2ncc[nH]2)nc2c1ccc(=O)n2-c1c(F)cccc1F [116(c), 3-{8-(2,6-difluorophenyl)-2-[(1H-imidazol-2-ylmethyl)amino]-7-oxo-7,8-dihydropyrido[2,3-d]pyrimidin-4-yl}-4-methyl-N-(phenylmethyl)benzamide]",,,185 to 190 °C (dec.)
"Cc1ccc(C(=O)NC(C)C)cc1-c1nc(N(C)CCCN(C)C)nc2c1ccc(=O)n2-c1c(F)cccc1F [Example 34, 3-{8-(2,6-difluorophenyl)-2-[[3-(dimethylamino)propyl](methyl)amino]-7-oxo-7,8-dihydropyrido[2,3-d]pyrimidin-4-yl}-4-methyl-N-(1-methylethyl)benzamide]",active,statistically significant inhibition,
"CCC(C)NC(=O)c1ccc(C)c(-c2nc(NCCCN(CC)CC)nc3c2ccc(=O)n3-c2c(F)cccc2F)c1 (stereo not shown) [Example 162, 3-[2-{[3-(diethylamino)propyl]amino}-8-(2,6-difluorophenyl)-7-oxo-7,8-dihydropyrido[2,3-d]pyrimidin-4-yl]-4-methyl-N-(1-methylpropyl)benzamide]",active,statistically nonsignificant inhibition,
Cc1ccc(C(=O)Nc2ccc(F)cc2)cc1-c1nc(NCc2ncc[nH]2)nc2c1ccc(=O)n2-c1c(F)cccc1F [Example 78],active,statistically significant inhibition,
"CNC1CCN(c2nc(-c3cc(C(=O)NC(C)C)ccc3C)c3ccc(=O)n(-c4c(F)cccc4F)c3n2)CC1 [113(b), 3-{8-(2,6-difluorophenyl)-2-[4-(methylamino)-1-piperidinyl]-7-oxo-7,8-dihydropyrido[2,3-d]pyrimidin-4-yl}-4-methyl-N-(1-methylethyl)benzamide]",active,statistically nonsignificant inhibition,
"Cc1ccc(C(=O)NC(C)C)cc1-c1nc(NCCN(C)C)nc2c1ccc(=O)n2-c1c(F)cccc1F [Example 117, 3-(8-(2,6-difluorophenyl)-2-{[2-(dimethylamino)ethyl]amino}-7-oxo-7,8-dihydropyrido[2,3-d]pyrimidin-4-yl)-4-methyl-N-(1-methylethyl)benzamide]",active,statistically significant inhibition,
"Cc1ccc(C(=O)Nc2ccc(F)cc2)cc1-c1nc(NC2CC(C)(C)NC(C)(C)C2)nc2c1ccc(=O)n2-c1c(F)cccc1F [Example 66, 3-{8-(2,6-difluorophenyl)-7-oxo-2-[(2,2,6,6-tetramethyl-4-piperidinyl)amino]-7,8-dihydropyrido[2,3-d]pyrimidin-4-yl}-N-(4-fluorophenyl)-4-methylbenzamide]",active,statistically significant inhibition,
"Cc1ccc(C(=O)Nc2nccs2)cc1-c1nc(NCc2ncc[nH]2)nc2c1ccc(=O)n2-c1c(F)cccc1F [79(c), 3-{8-(2,6-difluorophenyl)-2-[(1H-imidazol-2-ylmethyl)amino]-7-oxo-7,8-dihydropyrido[2,3-d]pyrimidin-4-yl}-4-methyl-N-1,3-thiazol-2-ylbenzamide]",active,statistically significant inhibition,
"Cc1ccc(C(=O)Nc2nccs2)cc1-c1nc(NCCN(C)C)nc2c1ccc(=O)n2-c1c(F)cccc1F [Example 109, 3-(8-(2,6-difluorophenyl)-2-{[2-(dimethylamino)ethyl]amino}-7-oxo-7,8-dihydropyrido[2,3-d]pyrimidin-4-yl)-4-methyl-N-1,3-thiazol-2-ylbenzamide]",active,statistically significant inhibition,
"CCN(CC)CCCNc1nc(-c2cccc(C(=O)NC)c2)c2ccc(=O)n(-c3c(F)cccc3F)c2n1 [193(b), 3-[2-{[3-(diethylamino)propyl]amino}-8-(2,6-difluorophenyl)-7-oxo-7,8-dihydropyrido[2,3-d]pyrimidin-4-yl]-N-methylbenzamide]",active,,
